From ChEMBL document CHEMBL1201862, “PubChem BioAssay data set” (2004) come the findings set out here.

Structures are written as SMILES.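 Values below derive from 48-hour exposures of cells grown in 96-well plates, with endpoints linearly interpolated between the two concentrations bracketing the appropriate inhibition level. GI50 marks 50% less growth.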 The source made the active and inactive calls. Cut-off read from the data, not from the text of the source: active = GI50 up to about 1.1 µM and inactive = higher.

What all share (test): DTP human tumour cell line panel, 48 h
Experiment [1] has as its system COLO 205.
Experiment [2] has as its system HCT-15.
The subject of experiment [3] is HL-60.
In experiment [4] the test system is HOP-92.
In experiment [5] the test system is HT-29.
Experiment [6] has as its system LOX IMVI.
Experiment [7] concerns MCF7.
Experiment [8] has as its system MOLT-4.
The test system of experiment [9] is NCI-H226.
The subject of experiment [10] is NCI-H522.
The test system of experiment [11] is OVCAR-5.
In experiment [12] the test system is RXF 393.
The subject of experiment [13] is SF-295.
Experiment [14] has as its system SR.
Experiment [15] has as its system TK-10.
Experiment [16] relates to UACC-257.
Experiment [17] has as its system UACC-62.
The subject of experiment [18] is CAKI-1.
The test system of experiment [19] is EKVX.

`CCOC(=O)Cn1c(=O)c2nc(SC)sc2n(-c2ccccc2)c1=S`: the GI50 was 42.1 µM (inactive) in experiment [1]; 52 µM in experiment [2]; 32.3 µM (inactive) in [3]; 4.8 µM (inactive) in experiment [4]; > 100 µM (inactive) in experiment [5]; 94 µM (inactive) in experiment [6]. Besides, the GI50 in [7] is > 100 µM (inactive); in experiment [8], > 100 µM (inactive); in [9] it was 18.4 µM (inactive); in [10], 68.1 µM (inactive); in [11], 93.3 µM (inactive); in [12], 21 µM (inactive). Besides, the GI50 in [13] is 32.5 µM (inactive); in experiment [14], > 100 µM (inactive); in [15], 30.3 µM (inactive); in experiment [16], > 100 µM (inactive); in experiment [17], < 0.01 µM (active).
Take `Cc1ccc(C2(C)CC/C(=N/N=C3/CCC(C)(c4ccc(C)c(C)c4)c4cc(C)c(C)cc43)c3cc(C)c(C)cc32)cc1C` (stereo not drawn): the GI50 in [18] was > 100 µM (inactive); in experiment [1] it was > 100 µM (inactive); in experiment [19], > 100 µM (inactive); in [2], over 100 µM; in experiment [3] it was > 100 µM (inactive); in [4], > 100 µM (inactive). Further, the GI50 in experiment [5], in experiment [6], in [7], in experiment [8], in experiment [9] and in experiment [10] was > 100 µM (inactive) each time. The GI50 in experiment [11], in experiment [12], in experiment [13], in experiment [14], in experiment [15] and in experiment [17] was > 100 µM (inactive) in each case.
With `CC(C)(C)N/N=C(/Cc1nc2c3c(ccc2nc1O)C(=O)c1ccccc1C3=O)C(=O)NC1=C(Cl)C(=O)c2ccccc2C1=O`, the GI50 in experiment [18] was 1.06 µM (active); in experiment [1], 24 µM (inactive); in experiment [19] it was 61.2 µM (inactive); in experiment [2], 4.26 µM; in experiment [3], 10.3 µM (inactive); in experiment [4], 31.6 µM (inactive). The GI50 in experiment [5] was 13.6 µM (inactive); in experiment [6] it was 6.17 µM (inactive); in [7], 20 µM (inactive); in experiment [8], 23.2 µM (inactive); in [9], 10.7 µM (inactive); in experiment [10] it was 16.9 µM (inactive). The GI50 in experiment [11] is > 100 µM (inactive); in experiment [12], 6.18 µM (inactive); in [13], 39.4 µM (inactive); in [14], 27.7 µM (inactive); in experiment [16] it was 57.9 µM (inactive); in experiment [17], 21.2 µM (inactive).
With `COC(=O)C(Cc1c[nH]c2ccccc12)NP(=O)(O)OCC1OC(n2cc(F)c(=O)[nH]c2=O)CC1O` (stereo not drawn), the GI50 was > 100 µM (inactive) in [1]; > 100 µM (inactive) in experiment [19]; over 100 µM in experiment [2]; 40.9 µM (inactive) in [3]; 31.4 µM (inactive) in experiment [4]; > 100 µM (inactive) in [5]. Further, the GI50 was 18.2 µM (inactive) in experiment [6]; 7.35 µM (inactive) in [7]; 10.1 µM (inactive) in experiment [8]; > 100 µM (inactive) in experiment [9]; > 100 µM (inactive) in experiment [10]; > 100 µM (inactive) in [11]. The GI50 in [12] is > 100 µM (inactive); in experiment [13], > 91.2 µM (inactive); in experiment [14], 5.02 µM (inactive); in experiment [15], > 100 µM (inactive); in experiment [16], > 100 µM (inactive); in experiment [17], > 26.5 µM (inactive).
With `CCCCCCCC1C(C)c2c([nH]c3ccccc23)C2C(=O)N(c3ccc(OC)cc3)C(=O)C21` (stereo not drawn), the GI50 in [18] was 3.26 µM (inactive); in experiment [1] it was 3.78 µM (inactive); in [19] it was 3.97 µM (inactive); in experiment [2], over 7.76 µM; in [3], 1.95 µM (inactive); in experiment [4], > 10 µM (inactive). Also, the GI50 in experiment [5] was 2.63 µM (inactive); in experiment [7], 4.6 µM (inactive); in experiment [8] it was 3.2 µM (inactive); in [9], 3.1 µM (inactive); in [10], 4.48 µM (inactive); in experiment [11] it was > 10 µM (inactive). Also, the GI50 in [12] was 2.79 µM (inactive); in experiment [13], 2.58 µM (inactive); in [14], 2.84 µM (inactive); in experiment [15], 2.38 µM (inactive); in experiment [16] it was 2.64 µM (inactive); in [17], 4.24 µM (inactive).
`CCOP(C)(=O)/C(Cc1ccc(OC)c(OC)c1)=N\O` (stereo not drawn): the GI50 in experiment [18] is > 100 µM (inactive); in experiment [1], > 100 µM (inactive); in [19], > 100 µM (inactive); in [2], over 100 µM; in experiment [3], > 100 µM (inactive); in experiment [4] it was > 100 µM (inactive). Also, the GI50 in [5], in [6], in experiment [7], in [8], in [9] and in experiment [10] was > 100 µM (inactive) in each case. Further, the GI50 in experiment [11], in experiment [12], in [13], in experiment [14], in [15] and in [17] was > 100 µM (inactive) throughout.
For `COc1ccc(/N=c2/oc3ccccc3cc2C(N)=O)cc1`, the GI50 in experiment [18] was 13.6 µM (inactive); in experiment [1] it was > 100 µM (inactive); in experiment [19], > 100 µM (inactive); in [2], over 100 µM; in experiment [3], > 100 µM (inactive); in [4] it was 27.8 µM (inactive). For the same compound, the GI50 was > 100 µM (inactive) in experiment [5]; 33.7 µM (inactive) in experiment [6]; 22.5 µM (inactive) in [7]; > 100 µM (inactive) in [8]; 65.9 µM (inactive) in [9]; 13.4 µM (inactive) in [10]. Besides, the GI50 in [12] is 40.5 µM (inactive); in [13], 26.3 µM (inactive); in experiment [14] it was > 100 µM (inactive); in experiment [15], 22.5 µM (inactive); in experiment [16], > 100 µM (inactive); in [17] it was 34.8 µM (inactive).
For `COc1ccc(/C=C2\N/C(=N/N)N=C2Cl)cc1`, the GI50 in [18] was > 100 µM (inactive); in experiment [1], > 100 µM (inactive); in [19], > 100 µM (inactive); in experiment [2], over 100 µM; in [3], > 100 µM (inactive); in experiment [4], > 100 µM (inactive). Besides, the GI50 in experiment [5], in experiment [6], in experiment [7], in [8], in [9] and in experiment [10] was > 100 µM (inactive) each time. Also, the GI50 in [11], in [12], in experiment [13], in experiment [14], in [15] and in experiment [16] was > 100 µM (inactive) throughout.

The GI50 is the concentration that inhibits growth by half.
